Series [1] relates to vitamin D-deficient rats. Nature of the series: Serum calcium in vitamin D-deficient hyperparathyroid rats, dosing thrice weekly for nearly four weeks. The format is in vivo, Sprague-Dawley rats. As for the experimental part: Oral Formulations. Cinacalcet was weighed and mixed with ethanol (at least 21 mcL ethanol/mg cinacalcet) for approximately 10 minutes. After a clear solution was produced, the clear solution was mixed with an ethanolic solution of 2MD or vitamin D analog as a control. The two ethanolic solutions were mixed (approx. 15 min.) with Neobee oil so that there was no more than 14.1% of ethanol in the final dosing solution. Doses were delivered in a 0.75 mL/kg dose volume.
Intravenous Formulations. Etelcalcitide was weighed and mixed with propylene glycol (up to 5 mg etelcalcitide/ml propylene glycol) for approximately 1 minute. After a clear solution was produced ([…]), the clear solution was mixed with an ethanolic solution of 2MD or vitamin D analog as a control (no more than ˜0.6% ethanol in the final solution) for approximately 1 min. Doses were delivered in a 1 mL/kg dose volume.
Sprague-Dawley rats were made vitamin D-deficient and then placed on a high containing lactose (10%) and elevated levels of calcium (2%) and phosphorus (1.25%). After hyperparathyroidism was established in the rats, animals were administered cinacalcet or etelcalcitide, 2MD or the combination of the two thrice weekly for nearly four weeks. Blood was collected 48-72 hours after the last dose was given and PTH (Immutopics Intact PTH kit) and serum calcium (Perkin Elmer) measured. […]

Series [2] relates to MRL/MpJ-FAS^1pr (MRL/lpr) mouse model of systemic lupus erythematosus. The following applies: calcitriol administered through the diet; cited from earlier work.

Take `C=C1[C@H](O)CC(=C/C=C2\CCC[C@@]3(C)C2CCC3[C@@H](C)CCCC(C)(C)O)C[C@H]1O` (stereo partly drawn) [2MD, 2-methylene-19-nor-(20S)-1α,25-dihydroxyvitamin D3]: the “serum calcium, 2MD alone” value in series [1] (1 ng 2MD/kg bw) is “unaffected”. On to `C[C@@H](NCCCc1cccc(C(F)(F)F)c1)c1cccc2ccccc12` [cinacalcet, (R)—N-[1-(1-naphthyl)ethyl]-3-[3-(trifluoromethyl)phenyl] propan-1-amine], for which the “decrease of serum calcium, cinacalcet alone” value in series [1] (cinacalcet alone) was 0.5 mg%.

On to `C=C1/C(=C\C=C2/CCC[C@]3(C)[C@@H]([C@H](C)CCCC(C)(C)O)CC[C@@H]23)C[C@@H](O)C[C@@H]1O` [calcitriol, 1α,25-(OH)2D3], for which, in series [2], the hypercalcemia accompanying treatment result is recorded as “severe hypercalcemia always accompanied this treatment” and the proteinuria entry is reported as “completely prevents proteinuria”.

These data come from patent US20180055856A1, “COMBINATION OF LOW DOSE 2-METHYLENE-19-NOR-(20S)-1ALPHA, 25-DIHYDROXYVITAMIN D3 AND CALCIMIMETICS TO TREAT SECONDARY HYPERPARATHYROIDISM” (Wisconsin Alumni Research Foundation, priority 2016, published 2018).
